In paper PMC6478823, “A suite of phenotypic assays to ensure pipeline diversity when prioritizing drug-like Cryptosporidium growth inhibitors” (Nature Communications, 2019):

These compounds were tested on C. parvum (assay: not given). Details: compound at EC90; average of replicates.
Assay type: cell-based, Cryptosporidium parvum

SMILES	Invasion Assay: Mean % Inhibition (parasites), Average [%]
O=c1[nH]c(=O)n([C@H]2C[C@H](O)[C@@H](CO)O2)cc1F [Floxuridine]	-28.03
CN(C)c1ccc(C(=C2C=CC(=[N+](C)C)C=C2)c2ccc(N(C)C)cc2)cc1 [Gentian Violet]	-6.62
O=C(CC1NCCCC1O)Cn1cnc2cc(Br)c(Cl)cc2c1=O (centres unmarked) [Halofuginone]	6.92

Same assay, conditions: compound at EC90; single biological replicate 1

SMILES	Invasion Assay: Mean % Inhibition (parasites), Replicate 1a [%]
O=c1[nH]c(=O)n([C@H]2C[C@H](O)[C@@H](CO)O2)cc1F [Floxuridine]	-30
CN(C)c1ccc(C(=C2C=CC(=[N+](C)C)C=C2)c2ccc(N(C)C)cc2)cc1 [Gentian Violet]	-1.27
O=C(CC1NCCCC1O)Cn1cnc2cc(Br)c(Cl)cc2c1=O (centres unmarked) [Halofuginone]	11

Same assay, conditions: compound at EC90; single biological replicate 2

SMILES	Invasion Assay: Mean % Inhibition (parasites), Replicate 2a [%]
O=c1[nH]c(=O)n([C@H]2C[C@H](O)[C@@H](CO)O2)cc1F [Floxuridine]	-26
CN(C)c1ccc(C(=C2C=CC(=[N+](C)C)C=C2)c2ccc(N(C)C)cc2)cc1 [Gentian Violet]	-12
O=C(CC1NCCCC1O)Cn1cnc2cc(Br)c(Cl)cc2c1=O (centres unmarked) [Halofuginone]	2.47

Same assay, conditions: yes/no grouping by phenotypic assay result; compound at EC90

SMILES	Sporozoite invasion
O=c1[nH]c(=O)n([C@H]2C[C@H](O)[C@@H](CO)O2)cc1F [Floxuridine]	no

Each compound was assayed on C. parvum (assay: DNA replication assay (EdU incorporation)). Details: compound at EC90; average of replicates.
Assay type: cell-based, Cryptosporidium parvum

SMILES	DNA Synthesis Assay: Mean % Inhibition of EdU-labeling (normalized to parasite numbers), Average [%]
O=c1[nH]c(=O)n([C@H]2C[C@H](O)[C@@H](CO)O2)cc1F [Floxuridine]	20.42
CN(C)c1ccc(C(=C2C=CC(=[N+](C)C)C=C2)c2ccc(N(C)C)cc2)cc1 [Gentian Violet]	47.40
O=C(CC1NCCCC1O)Cn1cnc2cc(Br)c(Cl)cc2c1=O (centres unmarked) [Halofuginone]	88.20

Same assay, conditions: compound at EC90; single replicate 1

SMILES	DNA Synthesis Assay: Mean % Inhibition of EdU-labeling (normalized to parasite numbers), Replicate 1 [%]
O=c1[nH]c(=O)n([C@H]2C[C@H](O)[C@@H](CO)O2)cc1F [Floxuridine]	15.13
CN(C)c1ccc(C(=C2C=CC(=[N+](C)C)C=C2)c2ccc(N(C)C)cc2)cc1 [Gentian Violet]	62.13
O=C(CC1NCCCC1O)Cn1cnc2cc(Br)c(Cl)cc2c1=O (centres unmarked) [Halofuginone]	85.31

Same assay, conditions: compound at EC90; single replicate 2

SMILES	DNA Synthesis Assay: Mean % Inhibition of EdU-labeling (normalized to parasite numbers), Replicate 2 [%]
O=c1[nH]c(=O)n([C@H]2C[C@H](O)[C@@H](CO)O2)cc1F [Floxuridine]	27.54
CN(C)c1ccc(C(=C2C=CC(=[N+](C)C)C=C2)c2ccc(N(C)C)cc2)cc1 [Gentian Violet]	74.23
O=C(CC1NCCCC1O)Cn1cnc2cc(Br)c(Cl)cc2c1=O (centres unmarked) [Halofuginone]	91.09

Same assay, conditions: compound at EC90; single replicate 3

SMILES	DNA Synthesis Assay: Mean % Inhibition of EdU-labeling (normalized to parasite numbers), Replicate 3 [%]
O=c1[nH]c(=O)n([C@H]2C[C@H](O)[C@@H](CO)O2)cc1F [Floxuridine]	-10.47
CN(C)c1ccc(C(=C2C=CC(=[N+](C)C)C=C2)c2ccc(N(C)C)cc2)cc1 [Gentian Violet]	5.82

Same assay, conditions: compound at EC90; single replicate 4

SMILES	DNA Synthesis Assay: Mean % Inhibition of EdU-labeling (normalized to parasite numbers), Replicate 4 [%]
O=c1[nH]c(=O)n([C@H]2C[C@H](O)[C@@H](CO)O2)cc1F [Floxuridine]	28.26

Same assay, conditions: compound at EC90; single replicate 5

SMILES	DNA Synthesis Assay: Mean % Inhibition of EdU-labeling (normalized to parasite numbers), Replicate 5 [%]
O=c1[nH]c(=O)n([C@H]2C[C@H](O)[C@@H](CO)O2)cc1F [Floxuridine]	37.17

Same assay, conditions: compound at EC90; single replicate 6

SMILES	DNA Synthesis Assay: Mean % Inhibition of EdU-labeling (normalized to parasite numbers), Replicate 6 [%]
O=c1[nH]c(=O)n([C@H]2C[C@H](O)[C@@H](CO)O2)cc1F [Floxuridine]	24.87

Same assay, conditions: yes/no grouping by phenotypic assay result; compound at EC90

SMILES	DNA synthesis
O=c1[nH]c(=O)n([C@H]2C[C@H](O)[C@@H](CO)O2)cc1F [Floxuridine]	no

Each compound was assayed on C. parvum DMC1 expression (assay: Sexual differentiation assay (DMC1 expression)). Details: compound at asexual EC90, 48-72 h; average of replicates.
Assay type: cell-based, Cryptosporidium parvum
In short: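 Compounds applied at their previously determined asexual-assay EC90, and % inhibition of DMC1 expression reported. Readout: 4% paraformaldehyde fixation, immunostaining with mAb 1H10G7 plus fluorescein-lectin and Hoechst, tiled 20× imaging in 384-well format, ImageJ analysis counting lectin-positive then DMC1-positive parasites.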

SMILES	Asexual to sexual differentiation: Mean % DMC1 inhibition (normalized to host nuclei), Average [%]
O=c1[nH]c(=O)n([C@H]2C[C@H](O)[C@@H](CO)O2)cc1F [Floxuridine]	-7.53
CN(C)c1ccc(C(=C2C=CC(=[N+](C)C)C=C2)c2ccc(N(C)C)cc2)cc1 [Gentian Violet]	34.34
O=C(CC1NCCCC1O)Cn1cnc2cc(Br)c(Cl)cc2c1=O (centres unmarked) [Halofuginone]	68.25

Same assay, conditions: compound at asexual EC90, 48-72 h; single replicate 1

SMILES	Asexual to sexual differentiation: Mean % DMC1 inhibition (normalized to host nuclei), Replicate 1a [%]
O=c1[nH]c(=O)n([C@H]2C[C@H](O)[C@@H](CO)O2)cc1F [Floxuridine]	-14.02
CN(C)c1ccc(C(=C2C=CC(=[N+](C)C)C=C2)c2ccc(N(C)C)cc2)cc1 [Gentian Violet]	8.16
O=C(CC1NCCCC1O)Cn1cnc2cc(Br)c(Cl)cc2c1=O (centres unmarked) [Halofuginone]	51.29

Same assay, conditions: compound at asexual EC90, 48-72 h; single replicate 2

SMILES	Asexual to sexual differentiation: Mean % DMC1 inhibition (normalized to host nuclei), Replicate 2a [%]
O=c1[nH]c(=O)n([C@H]2C[C@H](O)[C@@H](CO)O2)cc1F [Floxuridine]	-1.05
CN(C)c1ccc(C(=C2C=CC(=[N+](C)C)C=C2)c2ccc(N(C)C)cc2)cc1 [Gentian Violet]	38.90
O=C(CC1NCCCC1O)Cn1cnc2cc(Br)c(Cl)cc2c1=O (centres unmarked) [Halofuginone]	73.88

Same assay, conditions: compound at asexual EC90, 48-72 h; single replicate 3

SMILES	Asexual to sexual differentiation: Mean % DMC1 inhibition (normalized to host nuclei), Replicate 3a [%]
CN(C)c1ccc(C(=C2C=CC(=[N+](C)C)C=C2)c2ccc(N(C)C)cc2)cc1 [Gentian Violet]	55.96
O=C(CC1NCCCC1O)Cn1cnc2cc(Br)c(Cl)cc2c1=O (centres unmarked) [Halofuginone]	79.59

The compounds below were run on C. parvum (assay: Egress, motility, reinvasion assay (PV ratio)). Details: compound at EC90; average of replicates.
Description: For quantification of parasitophorous vacuoles over time, HCT-8 cells were grown to greater than 90% confluence in 384-well plates and infected with 11,000 oocysts after triggering excystation.

SMILES	Egress and Reinvasion Assay: Mean PV ratios (19.5h:6h), Average
O=c1[nH]c(=O)n([C@H]2C[C@H](O)[C@@H](CO)O2)cc1F [Floxuridine]	0.74
CN(C)c1ccc(C(=C2C=CC(=[N+](C)C)C=C2)c2ccc(N(C)C)cc2)cc1 [Gentian Violet]	1.37
O=C(CC1NCCCC1O)Cn1cnc2cc(Br)c(Cl)cc2c1=O (centres unmarked) [Halofuginone]	0.69

Same assay, conditions: compound at EC90; single replicate 1

SMILES	Egress and Reinvasion Assay: Mean PV ratios (19.5h:6h), Replicate 1a
O=c1[nH]c(=O)n([C@H]2C[C@H](O)[C@@H](CO)O2)cc1F [Floxuridine]	0.67
CN(C)c1ccc(C(=C2C=CC(=[N+](C)C)C=C2)c2ccc(N(C)C)cc2)cc1 [Gentian Violet]	1.01
O=C(CC1NCCCC1O)Cn1cnc2cc(Br)c(Cl)cc2c1=O (centres unmarked) [Halofuginone]	0.76

Same assay, conditions: compound at EC90; single replicate 2

SMILES	Egress and Reinvasion Assay: Mean PV ratios (19.5h:6h), Replicate 2a
O=c1[nH]c(=O)n([C@H]2C[C@H](O)[C@@H](CO)O2)cc1F [Floxuridine]	0.80
CN(C)c1ccc(C(=C2C=CC(=[N+](C)C)C=C2)c2ccc(N(C)C)cc2)cc1 [Gentian Violet]	1.73
O=C(CC1NCCCC1O)Cn1cnc2cc(Br)c(Cl)cc2c1=O (centres unmarked) [Halofuginone]	1.01

Same assay, conditions: compound at EC90; single replicate 3

SMILES	Egress and Reinvasion Assay: Mean PV ratios (19.5h:6h), Replicate 3a
O=C(CC1NCCCC1O)Cn1cnc2cc(Br)c(Cl)cc2c1=O (centres unmarked) [Halofuginone]	0.53

Same assay, conditions: compound at EC90; single replicate 4

SMILES	Egress and Reinvasion Assay: Mean PV ratios (19.5h:6h), Replicate 4a
O=C(CC1NCCCC1O)Cn1cnc2cc(Br)c(Cl)cc2c1=O (centres unmarked) [Halofuginone]	0.46
